From ChEMBL document CHEMBL1130679, “Novel phosphate mimetics for the design of non-peptidyl inhibitors of protein tyrosine phosphatases” (Bioorg Med Chem Lett, 1998)

Tests used:
[1] = biological target: T1, Tyrosine-protein phosphatase non-receptor type 1 (Homo sapiens, UniProt P18031); assay: Inhibitory activity against protein tyrosine phosphatase 1B (PTP1B) using fluorescein diphosphate as substrate at Km concentration (20 uM)
T1 sequence (P18031 whole entry): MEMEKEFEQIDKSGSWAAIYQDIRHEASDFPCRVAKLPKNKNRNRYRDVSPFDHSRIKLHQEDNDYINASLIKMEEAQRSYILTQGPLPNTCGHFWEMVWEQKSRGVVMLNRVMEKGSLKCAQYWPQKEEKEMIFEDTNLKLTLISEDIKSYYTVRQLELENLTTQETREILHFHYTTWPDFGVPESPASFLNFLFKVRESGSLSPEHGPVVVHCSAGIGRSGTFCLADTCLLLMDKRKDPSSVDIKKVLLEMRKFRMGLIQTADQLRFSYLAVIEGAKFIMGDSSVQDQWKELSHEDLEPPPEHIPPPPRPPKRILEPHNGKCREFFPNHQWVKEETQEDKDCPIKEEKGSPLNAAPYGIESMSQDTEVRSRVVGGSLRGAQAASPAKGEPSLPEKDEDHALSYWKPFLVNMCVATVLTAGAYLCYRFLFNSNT

[2] = biological target: T1, Tyrosine-protein phosphatase non-receptor type 1; assay: Inhibitory activity against PTP1B as a model Protein tyrosine […] (PTP) using fluorescein diphosphate as substrate at Km concentration (20 uM) at th
[3] = biological target: T2, Tyrosine-protein phosphatase non-receptor type 1 (Homo sapiens) (UniProt P18031); assay: Inhibitory activity against protein tyrosine phosphatase 1B (PTP1B) at 500 uM conc. using fluorescein diphosphate as substrate at Km concentration (20 uM)
T2 sequence (whole entry): T1 sequence (P18031 whole entry)

[4] = biological target: T1, Tyrosine-protein phosphatase non-receptor type 1; assay: Binding affinity against Protein tyrosine phosphatase-1B (PTP1B)

Row | IC50 [1] [µM] | inhibition [3] [%] | SMILES | further results
1 | – | – | O=P(O)(O)OC(F)(F)c1cccc(-c2ccccc2)c1 | IC50 [2]: 15 µM
2 | – | 15 | c1ccc(-c2cccc(Cc3nnn[nH]3)c2)cc1 | –
3 | 435 | – | O=C(O)C(F)(F)c1cccc(-c2ccccc2)c1 | –
4 | – | 17 | O=P(O)(O)Cc1cccc(-c2ccccc2)c1 | –
5 | 195 | – | FC(F)(c1cccc(-c2ccccc2)c1)c1nnn[nH]1 | Ki [4]: 98 µM
6 | – | 12 | c1ccc2cc(Cc3nnn[nH]3)ccc2c1 | –
7 | 640 | – | O=C(O)C(F)(F)c1ccc2ccccc2c1 | –
8 | 35 | – | O=P(O)(O)OC(F)(F)c1ccc2ccccc2c1 | –
9 | 250 | – | O=C(O)C(F)(Oc1cccc(-c2ccccc2)c1)C(=O)O | –
10 | – | 4 | O=C(O)Cc1ccc2ccccc2c1 | –
11 | 230 | – | FC(F)(c1ccc2ccccc2c1)c1nnn[nH]1 | –
12 | 320 | – | O=C(O)C(F)(Oc1ccc2ccccc2c1)C(=O)O | –
13 | – | 9 | O=P(O)(O)Cc1ccc2ccccc2c1 | –
14 | – | 10 | O=S(=O)(O)Cc1cccc(-c2ccccc2)c1 | –
15 | – | 5 | O=S(=O)(O)Cc1ccc2ccccc2c1 | –

Row | SMILES | IC50 [1] [µM] | inhibition [3] [%] | further results
16 | O=S(=O)(O)C(F)(F)c1ccc2ccccc2c1 | 175 | – | –
17 | O=C(O)Cc1cccc(-c2ccccc2)c1 | – | 10 | –
18 | O=S(=O)(O)C(F)(F)c1cccc(-c2ccccc2)c1 | 115 | – | Ki [4]: 49 µM
